Measurements reported in PMC4830873 (Analytical and Bioanalytical Chemistry, 2016).
“Also recorded” adds a separate entry of the source. Where a SMILES comes first, the peptide text is derived from it. [ ]: non-standard residue; d: D form.

Assays:
[1] = Rat administration study, detection in plasma after intravenous administration; type: in vivo, Wistar; conditions: for In vivo biotransformation in rats (in words) / Anticipated metabolic products (N- or C-terminally truncated analogues) in rat plasma / Detection of intact GHRH in rat plasma 4 h post-administration / Detection of intact GHRH in rat plasma 8 h post-administration: 0.1 mg intravenous; for In vivo biotransformation in rats (in words): compared to CJC-1295; for Anticipated metabolic products (N- or C-terminally truncated analogues) in rat plasma: plasma 2, 4 and 8 h; for Detection of intact GHRH in rat plasma 4 h post-administration: plasma 4 h post dosing; for Detection of intact GHRH in rat plasma 4 h post-administration / Detection of intact GHRH in rat plasma 8 h post-administration: immunoaffinity purification and LC-HRMS/MS; for Detection of intact GHRH in rat plasma 8 h post-administration: plasma 8 h post dosing (latest collection time point)
Description: (§1) Sample aliquots of 100 μL of plasma were spiked with 1 μL of ISTD [200 ng/mL] and diluted with 100 μL of PBS before extraction. The multichannel pipette was equipped with up to 12 protein A/G MSIA™-Tips and up to 2000 cycles (one cycle corresponding to one round of liquid aspiration and ejection) were used for distinct sample preparation steps as outlined in Table 2. First, tips were conditioned with PBS before binding 10 μg of the polyclonal GHRH primary antibody (5 μL [2 mg/mL] in 95 μL PBS) to the proteins A/G immobilized on the monolithic adsorbent surface. After washing with PBS to remove unbound antibody residues the target analytes were extracted from plasma by antibody-antigen complex formation prior to three consecutive washing steps with PBS and water (Table 2). The peptides of interest were eluted into LoBind tubes using 3 % of aqueous acetic acid and the eluate was immediately used for injection into the UHPLC-MS(/MS) system. In Fig. 1, a schematic illustration of the relevant principle steps of the MSIA™ purification is presented.
To probe for the in vivo metabolism of Sermorelin, CJC-1293, CJC-1295, and Tesamorelin, 0.1 mg of each GHRH was administered intravenously to three rats (Rattus norvegicus, Wistar, 200–300 g bodyweight at dosing). Urine samples were collected in a metabolic cage prior to and 6, 12, 24, and 30 h after administration but not subjected to analysis in this study. Blood was sampled at 2, 4, and 8 h after injection and specimens were centrifuged at 13,000×g for 20 min to produce serum or EDTA plasma, which was stored at −20 °C until analysis. The animal studies were conducted with approval of the respective ethical committee and the laboratory followed the directive 2010/63/EU of the European parliament and the council of 22 September 2010 on the protection of animals used for scientific purposes.
All intact GHRHs administered intravenously to rats were detected in plasma samples collected 2 h post dosing. In addition, Tesamorelin, CJC-1295, and CJC-1293 were also identified in specimens sampled 4 and 8 h post-administrating (Fig. 3), with the 8-h sample representing the latest collection time point of the study. Here it appears noteworthy that only qualitative results were obtained and that no pharmacokinetic interpretation was conducted. While all analytes were unequivocally identified and differentiated by mass spectrometry, chromatographic separation was accomplished for all target peptides with the exemption of the closely related compounds Sermorelin and CJC-1293 under the chosen analytical conditions.

[2] = In vitro incubation in fresh human plasma (metabolic fate / degradation); type: in vitro ADME; conditions: fresh human plasma diluted 1:1 with PBS, qualitative; for Degradation products (metabolites) detected after incubation in human plasma: spiked to 10 μg/mL, 30, 60, 120 and 240 min at 37 °C, LC-HRMS full scan before vs after incubation
Description: For the investigation of the metabolic fate of GHRHs, in vitro experiments using fresh human plasma samples were conducted, allowing to test for potential degradation products of the studied substances. In accordance to earlier reported methods, aliquots of human plasma samples were diluted (1:1) with PBS [22] and spiked to 10 μg/mL with Sermorelin or Tesamorelin, respectively. After incubation for 30, 60, 120, and 240 min at 37 °C, samples were prepared and analyzed as described elsewhere. Simulating degradation processes of exopeptidases, potential metabolites were considered by eliminating up to three amino acids from both N- and C-terminus. All samples were probed for the anticipated metabolic products as well as for the corresponding intact drugs.
Identifying potential metabolites of Sermorelin and Tesamorelin was accomplished by subtracting and comparing mass spectrometric full scan data of samples prepared before and after incubation of the substrates in fresh human plasma.

[3] = Human administration study, detection in EDTA plasma after subcutaneous Geref (Sermorelin); type: in vivo; conditions: healthy volunteer, 500 μg Geref (Sermorelin) subcutaneous, n = 1
Description: as §1
Complementary to the aforementioned rat elimination study, a single dose of 500 μg of Geref (Sermorelin) (Hallandale Pharmacy, FL, USA) was self-administered subcutaneously by a healthy volunteer (78 kg) following the provision of written consent. EDTA plasma samples were collected 30, 90, and 270 min after dosing and the specimens were stored at −20 °C until analysis.
Compared to rat plasma samples collected after the intravenous application of Sermorelin, the human in vivo study (using subcutaneous drug application) indicates a different but also rapid metabolism of the peptide hormone. While the intact drug was not detected in any of the collected plasma samples, the in vitro-derived Sermorelin metabolite GRF3-29 was detected in plasma 30 min post injection (Fig. 4).

[4] = fresh human plasma samples diluted (1:1) with PBS; conditions: 37 °C, up to 240 min
[5] = EDTA plasma samples after subcutaneous self-administration of Geref (Sermorelin); conditions: human, up to 270 min
[6] = tested on: dipeptidyl peptidase-IV (DPP-IV); assay: in vitro; conditions: cited from earlier work
[7] = rat serum or EDTA plasma after intravenous administration; conditions: rats (Rattus norvegicus, Wistar), up to 8 h

## CC[C@H](C)[C@H](NC(=O)[C@H](C)NC(=O)[C@H](CC(=O)O)NC(=O)[C@@H](C)NC(=O)[C@@H](N)Cc1ccc(O)cc1)C(=O)N[C@@H](Cc1ccccc1)C(=O)N[C@H](C(=O)N[C@@H](CC(N)=O)C(=O)N[C@@H](CO)C(=O)N[C@@H](Cc1ccc(O)cc1)C(=O)N[C@@H](CCCNC(=N)N)C(=O)N[C@@H](CCCCN)C(=O)N[C@H](C(=O)N[C@@H](CC(C)C)C(=O)NCC(=O)N[C@@H](CCC(N)=O)C(=O)N[C@@H](CC(C)C)C(=O)N[C@@H](CO)C(=O)N[C@@H](C)C(=O)N[C@@H](CCCNC(=N)N)C(=O)N[C@@H](CCCCN)C(=O)N[C@@H](CC(C)C)C(=O)N[C@@H](CC(C)C)C(=O)N[C@@H](CCC(N)=O)C(=O)N[C@@H](CC(=O)O)C(=O)N[C@H](C(=O)N[C@@H](CCSC)C(=O)N[C@@H](CO)C(=O)N[C@@H](CCCNC(=N)N)C(N)=O)[C@@H](C)CC)C(C)C)[C@@H](C)O [CJC-1293, (D-Ala^2)-GRF amide]
[1]
  In vivo biotransformation in rats (in words): readily biotransformed
[1]; qualitative
  Anticipated metabolic products (N- or C-terminally truncated analogues) in rat plasma: none of the anticipated metabolic products; also recorded: no analogous metabolites
  Detection of intact GHRH in rat plasma 4 h post-administration: identified
  Detection of intact GHRH in rat plasma 8 h post-administration: identified

## CC[C@H](C)[C@H](NC(=O)[C@H](C)NC(=O)[C@H](CC(=O)O)NC(=O)[C@H](C)NC(=O)[C@@H](N)Cc1ccc(O)cc1)C(=O)N[C@@H](Cc1ccccc1)C(=O)N[C@H](C(=O)N[C@@H](CC(N)=O)C(=O)N[C@@H](CO)C(=O)N[C@@H](Cc1ccc(O)cc1)C(=O)N[C@@H](CCCNC(=N)N)C(=O)N[C@@H](CCCCN)C(=O)N[C@H](C(=O)N[C@@H](CC(C)C)C(=O)NCC(=O)N[C@@H](CCC(N)=O)C(=O)N[C@@H](CC(C)C)C(=O)N[C@@H](CO)C(=O)N[C@@H](C)C(=O)N[C@@H](CCCNC(=N)N)C(=O)N[C@@H](CCCCN)C(=O)N[C@@H](CC(C)C)C(=O)N[C@@H](CC(C)C)C(=O)N[C@@H](CCC(N)=O)C(=O)N[C@@H](CC(=O)O)C(=O)N[C@H](C(=O)N[C@@H](CCSC)C(=O)N[C@@H](CO)C(=O)N[C@@H](CCCNC(=N)N)C(N)=O)[C@@H](C)CC)C(C)C)[C@@H](C)O [Sermorelin, GHRH1-29]
[2]
  Degradation products (metabolites) detected after incubation in human plasma: the earlier reported metabolite (GRF3-29) [7] was observed
[2]; spiked to 10 μg/mL, 37 °C, after a period of 4 h (240 min), LC-HRMS full scan
  Intact drug remaining after incubation in human plasma: entirely degraded
[3]; EDTA plasma 30, 90 and 270 min after dosing
  Detection of intact drug in human plasma after subcutaneous application: not detected
[1]; 0.1 mg intravenous single dose, sampling at 2, 4 and 8 h, qualitative
  Detection window of intact substance in plasma: ≤ 2 h
[1]
  In vivo biotransformation in rats (in words): readily biotransformed
[1]; qualitative
  Anticipated metabolic products (N- or C-terminally truncated analogues) in rat plasma: none of the anticipated metabolic products

## CC/C=C/CC(=O)N[C@@H](Cc1ccc(O)cc1)C(=O)N[C@@H](C)C(=O)N[C@@H](CC(=O)O)C(=O)N[C@@H](C)C(=O)N[C@H](C(=O)N[C@@H](Cc1ccccc1)C(=O)N[C@H](C(=O)N[C@@H](CC(N)=O)C(=O)N[C@@H](CO)C(=O)N[C@@H](Cc1ccc(O)cc1)C(=O)N[C@@H](CCCNC(=N)N)C(=O)N[C@@H](CCCCN)C(=O)N[C@H](C(=O)N[C@@H](CC(C)C)C(=O)NCC(=O)N[C@@H](CCC(N)=O)C(=O)N[C@@H](CC(C)C)C(=O)N[C@@H](CO)C(=O)N[C@@H](C)C(=O)N[C@@H](CCCNC(=N)N)C(=O)N[C@@H](CCCCN)C(=O)N[C@@H](CC(C)C)C(=O)N[C@@H](CC(C)C)C(=O)N[C@@H](CCC(N)=O)C(=O)N[C@@H](CC(=O)O)C(=O)N[C@H](C(=O)N[C@@H](CCSC)C(=O)N[C@@H](CO)C(=O)N[C@@H](CCCNC(=N)N)C(=O)N[C@@H](CCC(N)=O)C(=O)N[C@@H](CCC(N)=O)C(=O)NCC(=O)N[C@@H](CCC(=O)O)C(=O)N[C@@H](CO)C(=O)N[C@@H](CC(N)=O)C(=O)N[C@@H](CCC(N)=O)C(=O)N[C@@H](CCC(=O)O)C(=O)N[C@@H](CCCNC(=N)N)C(=O)NCC(=O)N[C@@H](C)C(=O)N[C@@H](CCCNC(=N)N)C(=O)N[C@@H](C)C(=O)N[C@@H](CCCNC(=N)N)C(=O)N[C@@H](CC(C)C)C(N)=O)[C@@H](C)CC)C(C)C)[C@@H](C)O)[C@@H](C)CC [Tesamorelin]
[2]
  Degradation products (metabolites) detected after incubation in human plasma: no degradation products of considerable abundance were detected
[1]; qualitative
  Detection of intact GHRH in rat plasma 4 h post-administration: identified
  Detection of intact GHRH in rat plasma 8 h post-administration: identified

## DAIFTNSYRKVLGQLSARKLLQDIMSR-NH2 [Sermorelin metabolite, GRF3-29, metabolite of Sermorelin originating from the loss of the N-terminal Tyr-Ala-residue]
[3]; EDTA plasma 30 min
  Detection of metabolite in human plasma 30 min post injection: detected
[3]; EDTA plasma 90 min
  Detection of metabolite in human plasma 90 min post injection: negative

## CC[C@H](C)[C@H](NC(=O)[C@H](C)NC(=O)[C@H](CC(=O)O)NC(=O)[C@@H](C)NC(=O)[C@@H](N)Cc1ccc(O)cc1)C(=O)N[C@@H](Cc1ccccc1)C(=O)N[C@H](C(=O)N[C@@H](CCC(N)=O)C(=O)N[C@@H](CO)C(=O)N[C@@H](Cc1ccc(O)cc1)C(=O)N[C@@H](CCCNC(=N)N)C(=O)N[C@@H](CCCCN)C(=O)N[C@H](C(=O)N[C@@H](CC(C)C)C(=O)N[C@@H](C)C(=O)N[C@@H](CCC(N)=O)C(=O)N[C@@H](CC(C)C)C(=O)N[C@@H](CO)C(=O)N[C@@H](C)C(=O)N[C@@H](CCCNC(=N)N)C(=O)N[C@@H](CCCCN)C(=O)N[C@@H](CC(C)C)C(=O)N[C@@H](CC(C)C)C(=O)N[C@@H](CCC(N)=O)C(=O)N[C@@H](CC(=O)O)C(=O)N[C@H](C(=O)N[C@@H](CC(C)C)C(=O)N[C@@H](CO)C(=O)N[C@@H](CCCNC(=N)N)C(N)=O)[C@@H](C)CC)C(C)C)[C@@H](C)O [CJC-1295, (D-Ala^2, Gln^8, Ala^15, Leu^27)-GRF amide] (H-Y[dA]DAIFTQSYRKVLAQLSARKLLQDILSR-NH2)
[1]; qualitative
  Anticipated metabolic products (N- or C-terminally truncated analogues) in rat plasma: no analogous metabolites
  Detection of intact GHRH in rat plasma 4 h post-administration: identified
  Detection of intact GHRH in rat plasma 8 h post-administration: identified

## YADAIFTNSYRKVLGQLSARKLLQDIMSR-NH2
[4]
  cleaved bond: Ala2-D3
[5]
  cleaved bond: Ala2-D3, 30 min
[6]
  cleaved bond: Ala2-D3

## hexenoyl-YADAIFTNSYRKVLGQLSARKLLQDIMSRQQGESNQERGARARL-NH2
[7]
  not cleaved: identified at all sampling points (i.e., up to 8 h post-administration)
[4]
  not cleaved: no degradation products of considerable abundance were detected
